Measurements: US8512941B2, “Biological material and methods and solutions for preservation thereof” (Core Dynamics Limited, priority 2004, dated 2013)
Values joined by “and” are separate entries in the source; they are usually repeats but may differ in a detail not shown here. Equal values may be shown once.

Legend:
Format in all cases: cell-based
[1] = system: Red blood cells (RBC); test: RBC survival (cell count) after freezing/thawing or lyophilizing/rehydrating at 2.5 ml
Method: Red blood cells (RBC) were separated from whole blood received from the Israeli Blood Bank. The blood was centrifuged for 10 minutes at 1500 g and the plasma was discarded. […] Afterwards the supernatant was discarded, and an equal volume of cryopreservation solution selected from the solutions in Table I was added to the packed RBC. Different volumes (2.5-50 ml) of the RBC suspension were transferred to a 16-25 mm diameter glass test tube ([…], Israel). The experiment of freezing 200 ml of RBC suspension was done in a 2000 ml freezing bag (Baxter-Fenwal, USA). Samples were then either frozen and thawed in a water bath at 37° C. or lyophilized and rehydrated with double distilled water (DDW) at 37° C. Glass test tubes containing RBC were frozen in a modified MTG freezing apparatus, as described in WO 03/020874 (manufactured by IMT, Israel). The thermal gradient in the cooling unit was set to 5.5° C./mm or 10.5° C./mm or 15.5° C./mm (as detailed below) with final temperatures of -50° C., -100° C. or -150° C. […] During freezing the test tubes that contained only 2.5 ml samples were rotated at a rate of 56 rpm. Subsequent to freezing, biological material was taken from each test tube to test for cell viability. Lyophilization was performed in a commercial lyophilizer (Labconco, USA) with a condenser temperature of -82° C. for 72 hours. The biological material was is rehydrated by adding DDW to reach the sample's original volume. Frozen (but not lyophilized) material was thawed by immersion in a water bath at 37° C. for until it melted. Melting was observed visually. Cells were counted using the […] 60 cell counter (ABX, France), in accordance with the manufacturer's manual. This device provides a complete cell count (CBC) that includes parameters such as: cell number, hematocrit, mean cell volume, hemoglobin, etc. […] In these experiments the cell suspension volume was 2.5 ml.

[2] = system: Mononuclear cells (MNC) derived from umbilical cord blood (UCB); test: MNC proliferation assay based on thymidine incorporation; settings: FIG. 9; cells lyophilized at ×10 EGCG (4.12 mM) versus ×2.5 EGCG (1.03 mM); 48 hour incubation
Method: In addition, a cell proliferation assay was performed. In brief, the hydrated cells were incubated for 48 hour after which a proliferation assay based on thymidine incorporation was carried out (Promega, USA). The results of the proliferation assay are depicted in FIG. 9, wherein the proliferation index of the cells is depicted as a function of their number at initial plating. […] In addition, as the cells' initial plating number increases so does the proliferation index. The almost linear proportion shown for one of the ×10 EGCG samples is similar to that observed with fresh cells

[3] = system: Red blood cells (RBC); test: Post-thaw RBC hemolysis (cyanmethemoglobin assay, Drabkin's solution, Formula I); settings: 4.12 mM EGCG in 20% (w/v) Dextran 40, 0.8% NaCl; 1890° C./min; 24 hours at −80° C.
Method: In the following Examples, unless specifically said otherwise, free hemoglobin levels detection was done by using the cyanmethemoglubin assay using Drabkin's solution (Sigma, USA) and reading the absorbance at 540 nm using an ELISA reader (Bio Tek Instruments, USA). Hemoglobin (Hb) concentration was measured in the supernatant and in the pellet, and the hemolysis percentage was calculated using Formula I: […]
Freezing solution was mixed in a 1:1 ration with packed red blood cells.
RBC were frozen at a volume of 2.5 ml in a 16 mm diameter test tube (Manara, Israel) using the MTG freezing device. […] The test tubes were rotated during freezing at 60 rounds per minute. After freezing, samples were stored for 24 hours in a −80° C. freezer (Forma, USA). Thawing was performed by plunging the samples in a water bath at 37° C. for a period of time under a minute, when the samples visually appears to have been completely thawed.
Samples were rotated at 60 RPM.

[4] = system: Mononuclear cells (MNC) derived from umbilical cord blood (UCB); test: MNC viability by membrane integrity (SYBR14/PI) after freeze thawing or freeze drying; settings: for Mambrane integrity (%): 0.1M Trehalose in PBS
Method: Blood was separated on ficoll-paque gradient for 30 minutes at 1000 g. Afterwards the mononuclear layer was drawn out and washed twice in PBS for 10 minutes at 200 g. To each pellet one of the following freezing solutions was added:
2.5 ml of cell suspension were put in a 16 mm diameter glass test tube (Manara, Israel) and frozen using the MTG freezing apparatus (IMT, Israel). The temperature gradients were 1.5° C./mm and 0.428° C./mm, velocity was 0.2 mm/sec resulting in a cooling rate of 18° C./min and 5.1° C./min respectively. The first cooling rate was applied until the seeding temperature was reached. The samples were rotated at 56 rounds per minute (RPM).
After freezing samples were plunged into liquid nitrogen (LN), and then samples were either thawed at 37° C. in a water bath or put in a commercial lyophilizer (Labconco, USA) with a condenser temperature of −80° C. After drying the cells were rehydrated with DDW at 37° C.
Cells were counted using the PENTRA 60 cell counter, as described above. viability assessments were performed by evaluating the cells' membrane integrity using SYBR14 plus Propidium Iodide (PI) (Molecular Probes, USA) live/dead fluorescent staining. These stains are nucleic acid stains, SYBR14 is a membrane permeable molecule and PI can enter the cell only if the membrane is damaged.
(§1) C. In this example a freezing solution composed of 0.1M Trehalose and either 0.47 mg/ml EGCG (×2.5) or 1.89 mg/ml EGCG (×10) in PBS was used. Samples volume was 2.5 ml and samples were frozen as described above and then lyophilized. After being in the lyophilizer for 72 h, the samples were taken out and rehydrated with 2.4 ml of DDW at 37° C. After rehydration samples were assayed for CD3 using FACS (fluorescent-activated cell sorter) in accordance with the method described in Huiling et al. The Journal of Immunology 2003, 171: 4824-4829, with minor modifications.
Membrane integrity of the samples was evaluated before and after rehydration using SYBR 14 and PI (Molecular Probes, USA).

[5] = system: Mononuclear cells (MNC) derived from umbilical cord blood (UCB); test: CD3 expression by FACS of lyophilized, rehydrated MNC; settings: 0.1M Trehalose in PBS
Method: as §1

[6] = system: Red blood cells (RBC); test: Hypothermic preservation of whole blood at 4° C.: cell count, MCV, ATP bioluminescence; settings: on arrival, 15 minutes after adding, 1 week later, versus PBS bag
Method: Whole blood units, 2 days old, 500 ml each, were received from the Israeli blood services. 2 ml PBS were added to one bag and 2 ml PBS comprising 0.236 gram GTE (Taiyo, China) were added to the other. This GTE contains ˜80% catechins which contained the at least the following polyphenols: 48% EGCG, 10.8% epigallocatechin (EGC), 1.4% DL-Catechin (DL-C; (2S,3R)-2-(3,4-Dihydroxyphenol)-3,4-dihydro-1(2H)-benzopyran-3,5,7-triol), 5.6% epicatechin (EC). 2.6% gallocatechin gallate (GCG) and 14.5% epicatechin gallate (ECG). The final concentration of GTE was 0.4725 mg/ml. During delivery and storage the blood was maintained in a refrigerator at 4° C. storage.
1 ml samples were taken from each bag at the following times: (a) when the units arrived, (b) 15 minutes after adding PBS of EGCG and (c) 1 week later. The samples were counted and the mean cell value was measured using the Pentra 60 (ABX, France).
ATP content of each sample was assayed using ATP Bioluminescence Kit CLS II (Roche, Switzerland) according to the manufacturer's manual. In this assay, light emission is in direct proportion to the amount of ATP in the sample.

[7] = system: Red blood cells (RBC); test: Freeze-dried and rehydrated RBC: cell number, MCV, hemolysis; settings: for % Hemolysis in Lyo cells / MCV, Lyo / number of Cells, Lyo: lyophilized and rehydrated
Method: Freezing was performed as described in Example 5A. After freezing, samples were transferred to a commercial lyophilizer (Labconco, USA). Samples were lyophilized for 72 hours, after which rehydration was performed by adding 2.4 ml double distilled water at 37° C. back to the samples. After rehydration samples were counted and mean cell volume (MCV) was measured using the Pentra 60 (ABX, France) automatic cell counter. Free hemoglobin levels were measured as described above and the hemolysis percentage was calculated using Formula I.

[8] = system: Red blood cells (RBC); test: Freezing RBC without thermal gradients at varying NaCl concentrations; settings: for Cell Number, Thawed / MCV, Thawed: 24 h at −80° C.
Method: Samples volume was 1 ml. The Samples were maintained for at least 10 min at 5° C. and then transferred to a metal plate in a conventional freezing device (Forma, USA) at −80° C. for a period of 24 h. […] The percentage shown, is the thawed samples as compared with a fresh sample.

[9] = system: Red blood cells (RBC); test: Osmotic fragility of RBC; settings: 0.9 mg/ml EGCG, 20% dextran 40 kD, 0.8% NaCl
Method: The control group was whole blood. Portions of each of the EGCG supplemented and control were exposed to different sodium chloride concentrations of: 0.1, 0.2, 0.3, 0.4, 0.5, 0.6, 0.7, 0.8 and 0.9% (w/v).
Free hemoglobin was measured as described above and the hemolysis percentage was calculated using Formula I. The results of this experiment are shown in FIG. 8.

## O=C(O[C@@H]1Cc2c(O)cc(O)cc2O[C@@H]1c1cc(O)c(O)c(O)c1)c1cc(O)c(O)c(O)c1 [EGCG, Epigallocatechin gallate]
[1]; frozen at 1,000° C./min, lyophilized, rehydrated with DDW
  RBC survival, 1B Rehydrated: 49.19%
[1]; frozen at 1,000° C./min, thawed, not lyophilized, percentage of total fresh cells counted
  RBC survival, 1A Thawed: 84.53%
[1]; frozen at 2,000° C./min, thawed, not lyophilized
  RBC survival, 2A Thawed: 72.92%
[2]
  proliferation index: higher proliferation index
[3]
  Post thaw hemolysis: 3.5%
[4]; FIG. 7, 0.412, 1.03, 2.06, 4.12 mM EGCG with 0.1M trehalose in PBS, after freeze thawing and after freeze drying
  viability, effect of EGCG concentration: viability increased with EGCG concentration
[4]; Fresh with 0.47 mg/ml EGCG
  Mambrane integrity (%): 97.36 ± 2.2%
[4]; Fresh with 1.89 mg/ml EGCG
  Mambrane integrity (%): 90.01 ± 4.3%
[4]; Lyophilized with 0.47 mg/ml EGCG, rehydrated
  Mambrane integrity (%): 55.1 ± 8.5% and 59.8 ± 1.4%
[4]; Lyophilized with 1.89 mg/ml EGCG, rehydrated
  Mambrane integrity (%): 79.31 ± 8.8% and 83.62 ± 5.7% and 88.4 ± 3.2% and 88.03 ± 5.6%
[5]; Lyophilized with 0.47 mg/ml EGCG
  CD3 (%): 80%
[5]; Lyophilized with 1.89 mg/ml EGCG
  CD3 (%): 81% and 83% and 82% and 78%
[6]
  Cells counts: essentially the same
  MCV: essentially the same
[7]; 1.03 mM EGCG
  MCV, % of lyo from fresh: 85.23%
  number of Cells, % of lyo cells from fresh: 67.22%
  MCV, Fresh: 88 μm^3
  % Hemolysis in Lyo cells: 56.18%
  MCV, Lyo: 75 μm^3
  number of Cells, Lyo: 2.83 10^9/ml
[7]; 1.03 mM EGCG in 20% Dextran 40, 0.8% NaCl
  number of Cells, Fresh: 4.21 10^9/ml
[7]; 4.12 mM EGCG
  MCV, % of lyo from fresh: 96.59%
  number of Cells, % of lyo cells from fresh: 63.32%
  MCV, Fresh: 88 μm^3
  % Hemolysis in Lyo cells: 51.8%
  MCV, Lyo: 85 μm^3
  number of Cells, Lyo: 2.9 10^9/ml
[7]; 4.12 mM EGCG in 20% Dextran 40, 0.8% NaCl
  number of Cells, Fresh: 4.58 10^9/ml
[8]; NaCl 0.6%
  Cell Number, % thawed compared with fresh: 100.00%
  MCV, % thawed compared with fresh: 120.22%
  Cell Number, Thawed: 4.12 10^9/ml
  MCV, Thawed: 107 μm^3
  Cell Number, Fresh: 4.12 10^9/ml
[8]; NaCl 0.7%
  Cell Number, % thawed compared with fresh: 100.00%
  MCV, % thawed compared with fresh: 124.44%
  Cell Number, Thawed: 4.27 10^9/ml
  MCV, Thawed: 112 μm^3
  Cell Number, Fresh: 4.27 10^9/ml
[8]; NaCl 0.8%
  Cell Number, % thawed compared with fresh: 100.00%
  MCV, % thawed compared with fresh: 118.89%
  Cell Number, Thawed: 4.71 10^9/ml
  MCV, Thawed: 107 μm^3
  Cell Number, Fresh: 4.71 10^9/ml
[8]; NaCl 0.9% (Saline)
  Cell Number, % thawed compared with fresh: 75.50%
  MCV, % thawed compared with fresh: 101.11%
  Cell Number, Thawed: 3.42 10^9/ml
  MCV, Thawed: 91 μm^3
  Cell Number, Fresh: 4.53 10^9/ml
[9]; NaCl concentrations above 0.6% (w/v)
  hemolysis versus control (whole blood): no significant difference
[9]; hypotonic environment (below 0.5% NaCl)
  hemolysis versus control (whole blood): lower hemolysis rates
